Test results published in publication doi:10.1101/2022.11.24.517821v4 (biorxiv, 2022).
Read-outs that look alike come from different tables or passages of the source.

Legend:
TAS2R14 [1] = molecular target: T1, TAS2R14 (Homo sapiens, UniProt Q9NYV8); experiment: IP-One HTRF IP1 accumulation, HEK293T with Galpha-qi5; assay type: cell-based
T1 sequence (Q9NYV8 1-317): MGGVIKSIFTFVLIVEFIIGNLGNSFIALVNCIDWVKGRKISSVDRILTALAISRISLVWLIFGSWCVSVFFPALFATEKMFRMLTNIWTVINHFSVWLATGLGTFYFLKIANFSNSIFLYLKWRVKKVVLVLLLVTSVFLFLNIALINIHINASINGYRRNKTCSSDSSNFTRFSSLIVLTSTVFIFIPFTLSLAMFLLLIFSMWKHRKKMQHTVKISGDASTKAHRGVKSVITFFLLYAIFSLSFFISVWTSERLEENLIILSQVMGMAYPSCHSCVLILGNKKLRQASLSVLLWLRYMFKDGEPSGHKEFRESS

TAS2R14 [2] = molecular target: T1, TAS2R14; experiment: as above; assay type: cell-based; conditions: antagonist mode, […] min pre-incubation, against […] flufenamic acid, […] °C
TAS2R14 [3] = molecular target: T1, TAS2R14; experiment: cell-based; parameters: species or system HEK293T; conditions: HEK-293T, read-out: Emax[%flu acid]
TAS2R14 [4] = molecular target: T1, TAS2R14; experiment: cell-based; parameters: species or system HEK293T

Row | SMILES | IC50 (TAS2R14 [1]) | IC50 (TAS2R14 [2]) | Emax (TAS2R14 [3]) | EC50 (TAS2R14 [4])
1 | O=C(Nc1ccccc1C(=O)O)c1ccc(OC(F)(F)F)cc1 [LF1] | 6.8 ± 3.2 µM | – | – | –
2 | Cc1[nH]nc(C(=O)Nc2ccc(C3CCC(F)(F)CC3)cc2)c1C(=O)O [LF14] | 22 ± 16 µM | – | – | –
3 | O=C(c1cc(O)cc(C(F)(F)F)c1)N1CC(c2ccccc2)C1CO (centres unmarked) [LF22] | 7.2 ± 3 µM | – | – | –
4 | O=C(O)c1cc(I)ccc1Nc1cccc(C(F)(F)F)c1 [LW118] | – | A derivative of flufenamic acid (LW118) | – | –
5 | NS(=O)(=O)c1ccccc1Nc1cccc(OCc2ccccc2)c1 [lw19a] | – | – | 100% | 65 ± 25 µM
6 | COC(=O)c1ccccc1Nc1cccc(C(F)(F)F)c1 [lw50] | – | – | 47 ± 23% | 5.3 ± 3.2 µM
7 | O=C(O)c1ccccc1Nc1cccc(OC(F)(F)F)c1 [lw057] | – | – | 101 ± 5% | 0.25 ± 0.06 µM
8 | FC(F)(F)Oc1cccc(Nc2ccccc2-c2nnn[nH]2)c1 [lw070] | – | – | 72 ± 13% | 0.19 ± 0.07 µM
9 | FS(F)(F)(F)(F)c1cccc(Nc2ccccc2-c2nnn[nH]2)c1 [lw071] | – | – | 48 ± 3% | 0.23 ± 0.09 µM
10 | Clc1cccc(Nc2ccccc2-c2nnn[nH]2)c1 [lw072] | – | – | 67 ± 6% | 0.17 ± 0.07 µM
11 | O=C(O)c1ccccc1Nc1ccc(Cl)c(C(F)(F)F)c1 [lw076] | – | – | 67 ± 9% | 0.2 ± 0.05 µM
12 | COc1cc(Nc2ccccc2C(=O)O)cc(C(F)(F)F)c1 [lw077] | – | – | 87 ± 5% | 0.2 ± 0.06 µM
13 | FC(F)Oc1cccc(Nc2ccccc2-c2nnn[nH]2)c1 [lw083] | – | – | 77 ± 5% | 0.2 ± 0.02 µM
14 | FC(F)(F)c1cc(Nc2ccccc2-c2nnn[nH]2)ccc1Cl [lw084] | – | – | 59 ± 1% | 0.19 ± 0.02 µM
15 | COc1cc(Nc2ccccc2-c2nnn[nH]2)cc(C(F)(F)F)c1 [lw085] | – | – | 98 ± 3% | 0.08 ± 0.02 µM
16 | Cc1c(Nc2ccccc2-c2nnn[nH]2)cccc1C(F)(F)F [lw086] | – | – | 70 ± 4% | 0.29 ± 0.05 µM
17 | O=C(O)c1ccccc1Nc1ccc(N2CCOCC2)c(C(F)(F)F)c1 [lw101] | – | – | 44 ± 5% | 2 ± 0.49 µM
18 | O=C(O)c1ccccc1Nc1cc(OC2CC2)cc(C(F)(F)F)c1 [lw103] | – | – | 64 ± 3% | 0.31 ± 0.05 µM
19 | O=C1COc2c(cc(C(F)(F)F)cc2Nc2ccccc2C(=O)O)N1 [lw104] | – | – | 74 ± 8% | 1.8 ± 0.18 µM

Row | SMILES | IC50 (TAS2R14 [1]) | IC50 (TAS2R14 [2]) | Emax (TAS2R14 [3]) | EC50 (TAS2R14 [4])
20 | O=C(O)c1ccccc1Nc1cc(OCc2ccccc2)cc(C(F)(F)F)c1 [lw105] | – | – | 66 ± 14% | 1.7 ± 0.35 µM
21 | Cc1ccc(C(F)(F)F)cc1Nc1ccccc1-c1nnn[nH]1 [lw113] | – | – | 90 ± 5% | 0.31 ± 0.092 µM
22 | FC(F)(F)c1cc(Nc2ccccc2-c2nnn[nH]2)ccc1N1CCOCC1 [lw114] | – | – | 50 ± 7% | 0.19 ± 0.02 µM
23 | O=C(O)c1ccccc1Nc1cc([N+](=O)O)cc(C(F)(F)F)c1 [lw119] | – | – | 67 ± 8% | 0.19 ± 0.05 µM
24 | Cc1cn(-c2cc(Nc3ccccc3C(=O)O)cc(C(F)(F)F)c2)cn1 [lw122] | – | – | 51 ± 11% | 3.7 ± 1.2 µM
25 | COc1cc(Nc2ccc(Cl)cc2-c2nnn[nH]2)cc(C(F)(F)F)c1 [lw128] | – | – | 26 ± 4% | 0.58 ± 0.18 µM
26 | O=[N+](O)c1cc(Nc2ccccc2-c2nnn[nH]2)cc(C(F)(F)F)c1 [lw130] | – | – | 80 ± 8% | 0.73 ± 0.15 µM
27 | COC(=O)c1cc(Nc2ccccc2C(=O)O)cc(C(F)(F)F)c1 [lw153] | – | – | 73 ± 5% | 0.78 ± 0.25 µM
28 | NC(=O)c1cc(Nc2ccccc2C(=O)O)cc(C(F)(F)F)c1 [lw154] | – | – | 127 ± 13% | 7.2 ± 1 µM
29 | O=C(O)c1ccccc1Nc1cc(N2CCOCC2)cc(C(F)(F)F)c1 [lw167] | – | – | 41 ± 18% | 0.7 ± 0.4 µM
30 | COC(=O)c1cc(Nc2ccccc2-c2nnn[nH]2)cc(C(F)(F)F)c1 [lw169] | – | – | 97 ± 4% | 0.64 ± 0.14 µM
31 | NC(=O)c1cc(Nc2ccccc2-c2nnn[nH]2)cc(C(F)(F)F)c1 [lw183] | – | – | 86 ± 8% | 6 ± 1.3 µM
32 | FC(F)(F)c1cc(Nc2ccccc2-c2nnn[nH]2)cc(OC2CC2)c1 [lw190] | – | – | 68 ± 4% | 0.43 ± 0.075 µM
33 | Cc1cc(Nc2ccccc2-c2nnn[nH]2)cc(C(F)(F)F)c1 [lw201] | – | – | 81 ± 7% | 0.59 ± 0.25 µM
34 | O=C(O)c1cc([N+](=O)[O-])ccc1Nc1cccc(C(F)(F)F)c1 [lw205] | – | – | 82 ± 4% | 0.27 ± 0.075 µM
35 | NC(=O)c1ccccc1Nc1cccc(C(F)(F)F)c1 [lw208] | – | – | 34 ± 4% | 11 ± 0.75 µM
36 | O=Cc1ccc(Cl)cc1Nc1ccccc1C(=O)O [lw231] | – | – | 97 ± 7% | 3.3 ± 0.46 µM
37 | COC(=O)c1cccc(C(=O)O)c1Nc1cccc(C(F)(F)F)c1 [lw253] | – | – | 42 ± 4% | 0.48 ± 0.11 µM
38 | O=C(O)c1ccccc1Nc1cc(C#CC2CC2)cc(C(F)(F)F)c1 [lw271] | – | – | 57 ± 7% | 0.46 ± 0.079 µM

Row | SMILES | IC50 (TAS2R14 [1]) | IC50 (TAS2R14 [2]) | Emax (TAS2R14 [3]) | EC50 (TAS2R14 [4])
39 | CCCCc1cc2cccc(C(=O)O)c2n1-c1cccc(C(F)(F)F)c1 [lw273] | – | – | 62 ± 6% | 8.3 ± 2.4 µM
40 | Oc1cc(-c2ccccc2Nc2cccc(C(F)(F)F)c2)on1 [lw306] | – | – | 38 ± 4% | 3.1 ± 1.8 µM
41 | CCCCC#Cc1ccc(Nc2ccccc2C(=O)O)cc1C(F)(F)F [lw308] | – | – | 87 ± 7% | 4.4 ± 1.6 µM
42 | CC#Cc1ccc(Nc2ccccc2C(=O)O)cc1C(F)(F)F [lw310] | – | – | 89 ± 3% | 0.38 ± 0.052 µM
43 | CCCCCNC(=O)c1ccc(Nc2ccccc2C(=O)O)cc1C(F)(F)F [lw317] | – | – | 66 ± 17% | 30 ± 19 µM
44 | FC(F)(F)c1cc(-c2ccccc2)nc(Nc2ccccc2-c2nnn[nH]2)n1 [lw341] | – | – | 118 ± 16% | 1.1 ± 0.32 µM
45 | COc1ccc(Nc2ccccc2C(=O)O)cc1OCc1ccc(Cl)cc1 [lwbk19] | – | – | 70 ± 11% | 1.2 ± 0.3 µM
46 | COc1ccc(Nc2ccccc2C(=O)O)cc1OCc1cccc(F)c1 [lwbk20] | – | – | 89 ± 4% | 1.4 ± 0.5 µM
47 | COc1cccc(COc2cc(Nc3ccccc3C(=O)O)ccc2OC)c1 [lwbk21] | – | – | 88 ± 10% | 2.1 ± 1.1 µM
48 | O=C(O)c1ccccc1Nc1cc(C(F)(F)F)cc(C(F)(F)F)c1Cl [lwjk05] | – | – | 84 ± 1% | 0.15 ± 0.02 µM
49 | FC(F)(F)c1cc(Nc2ccccc2-c2nnn[nH]2)c(Cl)c(C(F)(F)F)c1 [lwjk06] | – | – | 97 ± 8% | 0.17 ± 0.02 µM
50 | Cc1ccc(Nc2ccccc2C(=O)O)cc1OCc1ccc(Cl)cc1 [lwlb17] | – | – | 70 ± 10% | 1.3 ± 0.18 µM
51 | COc1cccc(COc2cc(Nc3ccccc3C(=O)O)ccc2C)c1 [lwlb18] | – | – | 54 ± 14% | 1.5 ± 0.5 µM
52 | Cc1ccc(Nc2ccccc2C(=O)O)cc1OCc1cccc(F)c1 [lwlb19] | – | – | 70 ± 6% | 1.9 ± 0.94 µM
53 | O=C(O)c1ccccc1Nc1cccc(OCc2ccc(Cl)cc2)c1 [lwmr04] | – | – | 64 ± 2% | 1.1 ± 0.18 µM
54 | COc1cccc(COc2cccc(Nc3ccccc3C(=O)O)c2)c1 [lwmr05] | – | – | 70 ± 6% | 0.74 ± 0.12 µM
55 | O=C(O)c1ccccc1Nc1cccc(OCc2cccc(F)c2)c1 [lwmr06] | – | – | 71 ± 4% | 0.42 ± 0.05 µM
56 | FC(F)(F)c1cccc(Nc2ccccc2-c2cnoc2)c1 [lwph005] | – | – | 50 ± 1% | 12 ± 8.9 µM
57 | FC(F)(F)c1cccc(Nc2ccccc2-c2cnn[nH]2)c1 [lwtp009] | – | – | 48 ± 1% | 12 ± 1.4 µM
